SMILES strings stand for the structures.

Data set [1] in a line: rat in-vivo pharmacokinetic assay (PO). The note with it: Sprague-Dawley (SD), male SD rats, 10 mg/kg; for Tmax / AUC(0-t) / AUC(0-inf) / half-life: plasma; for Tmax: time to peak the concentration in the plasma; for Cmax: peak concentration in the plasma; for AUC(0-t): area under curve from time=0→t; for AUC(0-inf): area under curve from time=0→∞. As to the method:
Assay animals: 6-8 weeks aged male SD rats (purchased from Vital River Laboratories), 3 rats per compound, weighing 200-240g.
Solvent: 0.5% MC(methyl cellulose) solution + 0.1% SDS (sodium dodecyl sulfate).
Intragastric administration (PO): See Table 2 Table 2 Administration of compounds in the rat PK (pharmacokinetic) assay
Blood collection: each of 200 µL whole blood were collected at 0.17hr, 0.5hr, 1hr, 2hr, 4hr, 6hr, 8hr, 24hr, 30hr, 48hr, 54hr and 72hr. The collected blood samples were centrifuged at 4°C at 8000rpm in a low temperature high-speed centrifuge (5415R, Eppendorf) for 6mins to separate the blood plasma. The separated plasma was preserved at -80 °C in a refrigerator.
20µL of the plasma was carefully taken out, to which was added 600µL of an internal standard MTBE (methyl tert-butyl ether) solution (containing internal standard dapagliflozin 25ng/ml). The plasma was subjected to a vortex at 1500 rpm for 10mins, and then centrifuged at 12000 rpm for 5mins. 400µL of the supernatant was taken and blow-dried with nitrogen gas. The dried substance was redissolved with 200µL of a redissolving solution (acetonitrile:water=7:3). The solution was subjected to a vortex for 10mins, and analyzed with LC-MS/MS (API4000, Aplplied Biosystems). Table 3. Rat PK (pharmacokinetic) evaluation results (PO) for the compounds

The next data set concerns the target T1, SGLT-1 (Homo sapiens, UniProt P13866).
T1 construct: expressed in transfected cells
T1 sequence (P13866 1-664): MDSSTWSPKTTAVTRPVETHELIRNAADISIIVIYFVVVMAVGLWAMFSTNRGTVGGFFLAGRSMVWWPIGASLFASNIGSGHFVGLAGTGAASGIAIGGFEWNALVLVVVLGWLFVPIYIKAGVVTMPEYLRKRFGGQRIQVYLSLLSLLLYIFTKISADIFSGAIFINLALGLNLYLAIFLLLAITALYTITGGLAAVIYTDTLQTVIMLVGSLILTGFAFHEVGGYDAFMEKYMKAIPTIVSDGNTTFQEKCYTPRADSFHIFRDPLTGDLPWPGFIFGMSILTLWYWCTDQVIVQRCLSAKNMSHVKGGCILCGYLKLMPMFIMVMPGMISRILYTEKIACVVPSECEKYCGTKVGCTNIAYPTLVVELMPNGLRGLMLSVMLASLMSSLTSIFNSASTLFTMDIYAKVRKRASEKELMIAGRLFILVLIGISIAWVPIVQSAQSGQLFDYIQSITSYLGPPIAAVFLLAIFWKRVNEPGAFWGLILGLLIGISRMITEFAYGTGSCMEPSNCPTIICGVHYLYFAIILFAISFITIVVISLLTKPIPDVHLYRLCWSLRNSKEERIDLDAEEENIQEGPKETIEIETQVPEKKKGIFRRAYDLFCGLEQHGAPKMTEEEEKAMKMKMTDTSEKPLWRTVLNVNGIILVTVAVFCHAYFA
The experiment in a line: in-vitro assay: inhibition of sodium dependent [14C]-AMG uptake into CHO cells stably expressing human SGLT-1. Format: cell-based. The note with it: 37°C, 1hr. As to the method: In the in-vitro assay for the pharmacological activities of the present compounds, the human SGLT-2 and SGLT-1 sequences were transfected to Chinese hamster ovary cells to express stably. By measuring inhibition of the sodium dependent adsorption of [^14C]-labeled […]-D-glucopyranoside (AMG) into the cells, the half-inhibition concentration IC50 was determined. […] Buffer D: 120 mM NaCl, 4.7 mM KCl, 1.2 mM MgCl2, 2.2 mM CaCl2, 10 mM HEPES, 0.5 mM phlorizin (PH 7.4 with 1 mM Tris). Assay method: Human SGLT-2 and SGLT-1 sequences were stably expressed in the CHO cells. […] The plate was washed for five times. […] Finally, the radioactivity of [^14C]-AMG was detected with MicroBeta Trilux (purchased from PerkinElmer Co. Ltd.) according to the scintillation counting method, and the half-inhibition concentration IC50 was calculated.

The target in another data set is T2, SGLT-2 (Homo sapiens, UniProt P31639).
T2 construct: expressed in transfected cells
T2 sequence (P31639 1-672): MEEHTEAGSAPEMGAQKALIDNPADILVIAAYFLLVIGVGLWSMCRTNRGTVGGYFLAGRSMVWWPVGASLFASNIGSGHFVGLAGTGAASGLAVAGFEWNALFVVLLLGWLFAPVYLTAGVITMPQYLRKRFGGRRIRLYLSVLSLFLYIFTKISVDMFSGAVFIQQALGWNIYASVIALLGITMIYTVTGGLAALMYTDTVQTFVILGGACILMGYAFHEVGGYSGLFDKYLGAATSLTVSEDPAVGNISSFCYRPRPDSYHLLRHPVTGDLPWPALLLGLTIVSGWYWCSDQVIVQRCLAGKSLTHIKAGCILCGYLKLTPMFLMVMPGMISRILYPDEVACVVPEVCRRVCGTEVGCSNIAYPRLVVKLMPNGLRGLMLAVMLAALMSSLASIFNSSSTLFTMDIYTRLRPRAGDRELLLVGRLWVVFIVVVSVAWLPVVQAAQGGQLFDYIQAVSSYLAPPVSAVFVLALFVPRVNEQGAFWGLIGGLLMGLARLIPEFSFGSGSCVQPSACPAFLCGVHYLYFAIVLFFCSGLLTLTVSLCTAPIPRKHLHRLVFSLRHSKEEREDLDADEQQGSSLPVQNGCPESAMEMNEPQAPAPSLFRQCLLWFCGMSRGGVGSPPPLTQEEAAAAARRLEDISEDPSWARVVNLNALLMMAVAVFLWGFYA
The experiment in a line: in-vitro assay: inhibition of sodium dependent [14C]-AMG uptake into CHO cells stably expressing human SGLT-2. As to conditions: for IC50: CHO cells stably expressing human SGLT-2, [14C]-AMG uptake, 37°C, 1hr; for Selectivity: ratio SGLT-1 IC50 / SGLT-2 IC50. It counts as cell-based. The method, then:
In the in-vitro assay for the pharmacological activities of the present compounds, the human SGLT-2 and SGLT-1 sequences were transfected to Chinese hamster ovary cells to express stably. By measuring inhibition of the sodium dependent adsorption of [^14C]-labeled […]-D-glucopyranoside (AMG) into the cells, the half-inhibition concentration IC50 was determined.
Buffer A (KRH-Na^+): 120 mM NaCl, 4.7 mM KCI, 1.2 mM MgCl2, 2.2 mM CaCl2, 10 mM HEPES (PH 7.4 with 1 mM Tris).
Buffer A- (KRH-NMG): 120 mM NMG, 4.7 mM KCl, 1.2 mM MgCl2, 2.2 mM CaCl2, 10 mM HEPES (PH 7.4 with 1 mM Tris).
Buffer D: 120 mM NaCl, 4.7 mM KCl, 1.2 mM MgCl2, 2.2 mM CaCl2, 10 mM HEPES, 0.5 mM phlorizin (PH 7.4 with 1 mM Tris).
Assay method: Human SGLT-2 and SGLT-1 sequences were stably expressed in the CHO cells. The cell culture was conducted in a 96-well plate for 12hr. The plate was washed with KRH-Na+ (Buffer A) or KRH-NMG (Buffer A-) buffering solution for three times, 200µL/well. Then the plate was added with a buffering solution containing Buffer A or Buffer A- plus [^14C]-AMG (10 µCi/mL), 100µL/well. The cell culture was conducted at 37°C for 1hr. Then, 100µL of an ice pre-cooled buffering solution (Buffer D) was added to terminate the assay. The plate was washed for five times. Then an ice pre-cooled lytic buffering solution (100mM NaOH solution) was added, 20 µL/well, and the centrifugation at 600rpm was conducted for 5mins. Then Microscint 40 solution was added, 80 µl/well, and the centrifugation at 600rpm was conducted for 5mins. Finally, the radioactivity of [^14C]-AMG was detected with MicroBeta Trilux (purchased from PerkinElmer Co. Ltd.) according to the scintillation counting method, and the half-inhibition concentration IC50 was calculated.

Usually Tmax stands for the time at which the peak concentration occurs. The term IC50 denotes the point on the concentration scale where inhibition reaches its midpoint. The low end stands for higher potency, the high end for lower potency. Consider `OC[C@H]1O[C@@H](c2ccc(Cl)c(Cc3ccc(O[C@H]4C[C@@H]5C[C@@H]5C4)cc3)c2)[C@H](O)[C@@H](O)[C@@H]1O` [Compound represented by formula (II), (2S,3R,4R,5S,6R)-2-(3-(4-(((1R,3s,5S)-bicyclo[3.1.0]hexan-3-yl)oxy)benzyl)-4-chlorophenyl)-6-(hydroxymethyl)tetrahydro-2H-pyran-3,4,5-triol], for which the Tmax in data set [1] is 1 h. At SGLT-1, this molecule returned a half-maximal inhibitory concentration (IC50) of 17200 nM. For the same molecule, at SGLT-2, the half-inhibitory concentration (IC50) was 2.5 nM and the Selectivity amounted to 6886.93.

For the molecule `OC[C@H]1O[C@@H](c2ccc(Cl)c(Cc3ccc(O[C@@H]4C[C@@H]5C[C@@H]5C4)cc3)c2)[C@H](O)[C@@H](O)[C@@H]1O` [Compound represented by formula (III), (2S,3R,4R,5S,6R)-2-(3-(4-(((1R,3r,5S)-bicyclo[3.1.0]hexan-3-yl)oxy)benzyl)-4-chlorophenyl)-6-(hydroxymethyl)tetrahydro-2H-pyran-3,4,5-triol], the midpoint of inhibition on SGLT-2, the IC50, lay at 7.83 nM.

For `OC[C@H]1O[C@H](c2ccc(Cl)c(Cc3ccc(O[C@H]4C[C@@H]5C[C@@H]5C4)cc3)c2)[C@H](O)[C@@H](O)[C@@H]1O` [Compound represented by formula (IV), (2R,3R,4R,5S,6R)-2-(3-(4-(((1R,3s,5S)-bicyclo[3.1.0]hexan-3-yl)oxy)benzyl)-4-chlorophenyl)-6-(hydroxymethyl)tetrahydro-2H-pyran-3,4,5-triol], on SGLT-2, the IC50 worked out at 1110 nM.

`OC[C@H]1O[C@H](c2ccc(Cl)c(Cc3ccc(O[C@@H]4C[C@@H]5C[C@@H]5C4)cc3)c2)[C@H](O)[C@@H](O)[C@@H]1O` [Compound represented by formula (V), (2R,3R,4R,5S,6R)-2-(3-(4-(((1R,3r,5S)-bicyclo[3.1.0]hexan-3-yl)oxy)benzyl)-4-chlorophenyl)-6-(hydroxymethyl)tetrahydro-2H-pyran-3,4,5-triol] showed a half-maximal inhibitory concentration (IC50) against SGLT-2 of 282 nM.

By Cmax is commonly meant the peak of the concentration-time curve. For orientation: AUC(0-t) means the area under the concentration-time curve up to a stated or last time point. Low values mean low exposure, high ones high exposure. Usually AUC(0-inf) stands for total exposure, with the tail of the curve extrapolated. The low end stands for less exposure, the high end for more exposure. Broadly, the half-life is the time in which the quantity being followed falls by half. In data set [1], `OC[C@H]1OC(c2ccc(Cl)c(Cc3ccc(OC4CC5CC5C4)cc3)c2)[C@H](O)[C@@H](O)[C@@H]1O` (some centres unmarked) [Reference compound 1] had a Cmax of 4140 ng/mL, an area under the curve AUC(0-t) of 69600 ng·h/mL, an area under the curve AUC(0-inf) of 70300 ng·h/mL and a half-life of 10.3 h. Besides, the Tmax in data set [1] came to 2 h. Besides, on SGLT-1, half-maximal inhibition (IC50) was put at 2400 nM. On SGLT-2, half-maximal inhibition (IC50) was put at 3.63 nM and the Selectivity was 660.52.

Regarding `OC[C@H]1O[C@@H](c2ccc(Cl)c(Cc3ccc(OC4CC5CC5C4)cc3)c2)[C@H](O)[C@@H](O)[C@@H]1O` (some centres unmarked) [Reference compound 2], in data set [1], the Cmax amounted to 4980 ng/mL, the AUC(0-t) turned out to be 69300 ng·h/mL, the AUC(0-inf) was 69400 ng·h/mL and the half-life was 8.18 h. Moreover, in data set [1], the time of peak concentration (Tmax) turned out to be 2 h.
